Experimental data from patent US20060058364A1, “Treatment of dependence and dependence related withdrawal symptoms” (priority 2002, published 2006).
Read-outs that look alike come from different tables or passages of the source.

Tests used:
[1] = tested on: 5-HT1A receptors or 5-HT1D receptors; settings: cited from earlier work
[2] = tested on: atipamezole cue (atipamezole-associated lever selection); format: in vivo; settings: for dose at which full generalization was achieved: training dose 1 mg/kg s.c.
Procedure: A total of 50 Sprague-Dawley male rats (B&K, Sweden) were used in the drug discrimination experiment at Orion Pharma, Turku, Finland. The rats were housed in solid bottom polypropylene cages with stainless steel mesh lids 5 rats per cage on a 12/12 hour light/dark cycle (lights on at 06.00 a.m.) under standard conditions in 21±1° C. temperature. […] During training period the rats were allowed food 6-15 g/day immediately after the session and during testing period they were allowed 12-15 g/day after the session. The rats adopted well to this feeding schedule and grew slowly but steadily. Rats were drug and experimentally naive at the start of the experiments. All experimentation was approved by the local laboratory animal care and experimentation committee. The animals were housed according to the recommendations of Declaration of Helsinki and DHEW pub. No (NIH) 85-23 entitled “Guide for the care and use of laboratory animals”.
The drugs used were atipamezole HCl and MPV-1730 HCl (Orion Pharma, Finland), d-amphetamine sulphate (Sigma, USA), cocaine HCl (Tamro, Finland)) and desipramine HCl (Sigma, USA). All doses refer to respective salt forms. Drugs were diluted in sterile purified water (Aquasteril, Orion Pharma, Finland) and were prepared daily. Injections were given 30 min before the sessions. Saline (Natrosteril, Orion Pharma, Finland) was used in control administrations. Drugs were administered subcutaneously (s.c.) or intraperiotoneally (i.p.) in a volume of 1 ml/kg or perorally (p.o.) gy a gavage 10 ml/kg.
In the atipamezole discrimination experiment five identical operant chambers enclosed in larger sound and light attenuating, fan ventilated enclosures were used. Each chamber was equipped with two identical levers on one wall. Between these levers was a food cup, where 45 mg reward pellets (F0021, Bio-Serv, Frenchtown, USA) could be presented. The whole operant system was purchased from Rhema-Labortechnik, Hofheim, Germany.
The training to press levers for reward pellets was started with 50 rats with a continuous reinforcement (CRF) schedule, when both levers were active and later by changing daily the active lever. […] The duration of the session to this point was 30 min and thereafter the training sessions were reduced to 15 min. The discrimination training dose of atipamezole (1 mg/kg s.c.) was selected according to the effect of atipamezole (0, 0.1, 0.3, 1 and 3 mg/kg s.c.) on FR-10 responding when tested in the rats (session 30, data not shown). Thereafter, discrimination training was started with 46 rats. The discrimination training was done in following two week sequence: S-D-D-S-S and D-S-S-D-D (D=drug appropriate lever, S=saline lever) (Colpaert F., Niemegeers, C., Janssen, P. Theoretical and methodological considerations on drug discrimination learning. Psychopharmacologia (Berl.) 46: 169-177, 1976.). For half of the rats the right lever was a drug-appropriate lever and for the another half the left lever. During training only the drug- or saline-appropriate lever was active, but both levers were recorded. If a rat chose the correct lever during ten consecutive sessions and the total number of responses before the first reinforcer was 15 or less, the rat was accepted to the drug tests.
When the rats had reached the criterion, they were tested twice a week (usually on Wednesdays and Fridays) with different drugs. The normal sequence of saline or atipamezole was continued on other days. The lever selection had to be correct on the preceding day of the drug test and on the next day after drug test in order to be approved in the results. In the testing day, the rat decided which lever was activated by pressing ten lever presses on either of the levers. The selected lever was activated during the rest of the session. The previous saline day was used as a predrug control value. […]

[3] = tested on: alpha1-adrenergic, dopaminergic, GABAergic, serotonergic (such as 5-HT1A) etc. receptors; settings: cited from earlier work
idazoxan cue = settings: rats trained to discriminate idazoxan; cited from earlier work
[4] = tested on: psychostimulants such as amphetamine and cocaine (cue); settings: rat, in vivo; cited from earlier work
amphetamine cue = settings: rats trained to discriminate d-amphetamine; cited from earlier work
[5] = tested on: dopaminergic, 5-hydroxyhyptaminergic receptors and benzodiazepine receptors; settings: cited from earlier work

For `COc1ccccc1N1CCN(CCN2C(=O)c3ccccc3C(C)(C)C2=O)CC1` [ARC 239], the “affinity on 5-HT1A receptors or 5-HT1D receptors” value [1] is given as “have affinity”.

In the case of `CCC1(c2c[nH]cn2)Cc2ccccc2C1.Cl` [Atipamezole, 4-(2-ethyl-2,3-dihydro-1H-inden-2-yl)-1H-imidazole hydrochloride], the atipamezole-associated lever selection ([2]; 0.003-10 mg/kg, FIG. 1) is reported as “dose-responsively increased”, the “dose at which full generalization was achieved” value ([2]; atipamezole p.o., 60 min before session, FIG. 1) is reported as 1 mg/kg and the “dose at which full generalization was achieved” value ([2]; atipamezole s.c., 30 min before session, FIG. 1) is reported as 0.3 mg/kg. For the same compound, the “affinity for any other neurotransmitter receptors” value [3] was “negligible affinity”.

In the case of `CC1c2ccccc2CN1CC1=NCCN1` (stereo not drawn) [BRL 44408], the “affinity on 5-HT1A receptors or 5-HT1D receptors” value [1] is listed as “have affinity”.

For `CCC1(c2c[nH]cn2)Cc2ccc(F)cc2C1` (stereo not drawn) [MPV-1730, 4-(2-ethyl-5-fluoro-2,3-dihydro-1H-inden-2-yl)-1H-imidazole], the “generalization to atipamezole cue” value ([2]; 0.01-1 mg/kg s.c., 30 min before session, FIG. 3) was “generalized to atipamezole cue”.

In the case of `COC1(C2=NCCN2)COc2ccccc2O1` (stereo not drawn) [RX821002], the “affinity on 5-HT1A receptors or 5-HT1D receptors” value [1] is given as “have affinity”.

For `C[C@H](N)Cc1ccccc1` [d-amphetamine], the “generalization to atipamezole cue” value ([2]; s.c., tested 0.03-1 mg/kg, at doses 0.5 and 1 mg/kg, 30 min before session, FIG. 2) is listed as “clearly generalized” and the generalization to idazoxan (idazoxan cue) is listed as “did not generalize”.

In the case of `COc1ccc2c(c1)CCN1C[C@H]3CCCN(S(C)(=O)=O)[C@H]3C[C@@H]21` [delequamine], the “affinity on 5-HT1A receptors or 5-HT1D receptors” value [1] is listed as “have affinity”.

In the case of `CNCCCN1c2ccccc2CCc2ccccc21` [desipramine], the generalization to atipamezole ([2]; i.p., 30 min before session, FIG. 4) is listed as “not generalized”, the “tolerability of higher doses” value ([2]; rat, in vivo) is listed as “discontinued due to a prolonged lack of appetite” and the generalisation to psychostimulants [4] is listed as “only weakly”.

In the case of `c1ccc2c(c1)OCC(C1=NCCN1)O2` (stereo not drawn) [idazoxan], the generalization to amphetamine (amphetamine cue) is given as “did not generalize” and the “affinity on 5-HT1A receptors or 5-HT1D receptors” value [1] is given as “have affinity”.

For `COC(=O)[C@@H]1[C@H]2C[C@H]3c4[nH]c5ccccc5c4CCN3C[C@@H]2CC[C@@H]1O` [yohimbine], the generalization to amphetamine (amphetamine cue) is given as “did not generalize” and the “affinity to other than noradrenergic receptors” value [5] is given as “has affinity”.
